{"source": "the kinase profiling compilation of Christmann-Franck et al. (2016)", "assay_in_all_cases": "radiometric filter-binding kinase assay, Kinase HotSpot", "conditions_in_all_cases": "compound 0.5 µM; ATP 10 µM", "key": {"[1]": {"molecular_target": "FGR (human) (UniProt P09769)"}, "[2]": {"molecular_target": "ACVR1B (human) (UniProt P36896)"}, "[3]": {"molecular_target": "NTRK2 (human) (UniProt Q16620)"}, "[4]": {"molecular_target": "CSNK1G1 (human) (UniProt Q9HCP0)"}, "[5]": {"molecular_target": "CHEK1 (human) (UniProt O14757)", "sequence (O14757 whole entry, looked up)": "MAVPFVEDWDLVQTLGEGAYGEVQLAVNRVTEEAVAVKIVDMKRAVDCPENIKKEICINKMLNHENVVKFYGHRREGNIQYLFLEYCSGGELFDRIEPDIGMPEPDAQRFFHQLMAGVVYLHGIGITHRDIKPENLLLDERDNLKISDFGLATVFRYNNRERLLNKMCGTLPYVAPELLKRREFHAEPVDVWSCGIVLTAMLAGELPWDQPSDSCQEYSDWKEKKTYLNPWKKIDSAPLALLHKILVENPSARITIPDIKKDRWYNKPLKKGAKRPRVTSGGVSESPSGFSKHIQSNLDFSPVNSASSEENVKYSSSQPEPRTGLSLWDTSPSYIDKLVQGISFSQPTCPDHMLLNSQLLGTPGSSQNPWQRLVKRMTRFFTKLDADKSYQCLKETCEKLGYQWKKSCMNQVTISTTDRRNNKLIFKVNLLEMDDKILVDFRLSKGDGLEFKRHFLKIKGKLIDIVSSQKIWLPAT"}, "[6]": {"molecular_target": "NEK2 (human) (UniProt P51955)"}, "[7]": {"molecular_target": "MLTK (human) (UniProt Q9NYL2)"}, "[8]": {"molecular_target": "MARK1 (human) (UniProt Q9P0L2)"}, "[9]": {"molecular_target": "TYRO3 (human) (UniProt Q06418)", "sequence (Q06418 whole entry, looked up)": "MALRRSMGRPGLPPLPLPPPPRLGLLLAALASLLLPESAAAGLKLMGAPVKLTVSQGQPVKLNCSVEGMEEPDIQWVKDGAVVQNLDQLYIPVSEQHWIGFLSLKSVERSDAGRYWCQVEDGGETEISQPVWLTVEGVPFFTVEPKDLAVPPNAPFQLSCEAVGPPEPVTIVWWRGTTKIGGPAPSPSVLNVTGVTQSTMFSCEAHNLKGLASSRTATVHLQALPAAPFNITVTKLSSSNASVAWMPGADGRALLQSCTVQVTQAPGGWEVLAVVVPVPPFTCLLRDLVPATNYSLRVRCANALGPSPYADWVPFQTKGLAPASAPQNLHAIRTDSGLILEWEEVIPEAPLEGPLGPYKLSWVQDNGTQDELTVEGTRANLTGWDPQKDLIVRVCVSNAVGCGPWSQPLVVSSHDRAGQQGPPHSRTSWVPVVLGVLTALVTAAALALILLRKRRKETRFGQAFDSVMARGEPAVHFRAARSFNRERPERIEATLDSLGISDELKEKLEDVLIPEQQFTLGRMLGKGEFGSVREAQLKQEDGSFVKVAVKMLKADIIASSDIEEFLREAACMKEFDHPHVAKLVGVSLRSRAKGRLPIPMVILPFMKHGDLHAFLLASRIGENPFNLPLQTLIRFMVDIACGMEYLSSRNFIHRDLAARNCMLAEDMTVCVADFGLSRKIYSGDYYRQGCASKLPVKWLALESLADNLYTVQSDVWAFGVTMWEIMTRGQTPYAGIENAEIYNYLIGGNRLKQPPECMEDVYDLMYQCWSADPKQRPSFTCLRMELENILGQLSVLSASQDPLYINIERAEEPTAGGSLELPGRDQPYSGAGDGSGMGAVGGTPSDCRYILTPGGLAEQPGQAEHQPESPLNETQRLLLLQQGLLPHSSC"}, "[10]": {"molecular_target": "CDK9 CCNK (human) (UniProt O75909+P50750)"}, "[11]": {"molecular_target": "GRK4 (human) (UniProt P32298)"}, "[12]": {"molecular_target": "CHEK2 (human) (UniProt O96017)"}, "[13]": {"molecular_target": "MAP2K1 (human) (UniProt Q02750)"}, "[14]": {"molecular_target": "CDK2 CCNA2 (human) (UniProt P24941+P20248)"}, "[15]": {"molecular_target": "ABL2 (human) (UniProt P42684)"}, "[16]": {"molecular_target": "RPS6KA6 KD1 KD2 (human) (UniProt Q9UK32)"}, "[17]": {"molecular_target": "HIPK2 (human) (UniProt Q9H2X6)"}, "[18]": {"molecular_target": "NUAK2 (human) (UniProt Q9H093)"}, "[19]": {"molecular_target": "CDK4 CCND3 (human) (UniProt P30281+P11802)", "sequence (P11802 whole entry, looked up)": "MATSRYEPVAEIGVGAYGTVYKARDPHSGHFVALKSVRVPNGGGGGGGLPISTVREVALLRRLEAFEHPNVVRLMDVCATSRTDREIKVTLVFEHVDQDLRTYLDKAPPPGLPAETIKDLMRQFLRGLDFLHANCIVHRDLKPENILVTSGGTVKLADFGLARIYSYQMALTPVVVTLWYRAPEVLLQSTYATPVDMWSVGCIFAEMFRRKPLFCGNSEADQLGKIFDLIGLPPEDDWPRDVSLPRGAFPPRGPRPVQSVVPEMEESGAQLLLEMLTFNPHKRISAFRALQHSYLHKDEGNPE", "sequence (P30281 whole entry, looked up)": "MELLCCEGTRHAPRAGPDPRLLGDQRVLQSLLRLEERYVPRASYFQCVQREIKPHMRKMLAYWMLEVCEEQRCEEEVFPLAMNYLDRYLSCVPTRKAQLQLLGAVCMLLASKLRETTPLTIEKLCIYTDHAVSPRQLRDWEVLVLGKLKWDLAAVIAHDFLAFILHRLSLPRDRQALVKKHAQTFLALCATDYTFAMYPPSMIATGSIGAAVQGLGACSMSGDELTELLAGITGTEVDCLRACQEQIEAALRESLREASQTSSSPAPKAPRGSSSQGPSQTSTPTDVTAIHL"}, "[20]": {"molecular_target": "MAPK13 (human) (UniProt O15264)"}, "[21]": {"molecular_target": "CHUK (human) (UniProt O15111)", "sequence (O15111 whole entry, looked up)": "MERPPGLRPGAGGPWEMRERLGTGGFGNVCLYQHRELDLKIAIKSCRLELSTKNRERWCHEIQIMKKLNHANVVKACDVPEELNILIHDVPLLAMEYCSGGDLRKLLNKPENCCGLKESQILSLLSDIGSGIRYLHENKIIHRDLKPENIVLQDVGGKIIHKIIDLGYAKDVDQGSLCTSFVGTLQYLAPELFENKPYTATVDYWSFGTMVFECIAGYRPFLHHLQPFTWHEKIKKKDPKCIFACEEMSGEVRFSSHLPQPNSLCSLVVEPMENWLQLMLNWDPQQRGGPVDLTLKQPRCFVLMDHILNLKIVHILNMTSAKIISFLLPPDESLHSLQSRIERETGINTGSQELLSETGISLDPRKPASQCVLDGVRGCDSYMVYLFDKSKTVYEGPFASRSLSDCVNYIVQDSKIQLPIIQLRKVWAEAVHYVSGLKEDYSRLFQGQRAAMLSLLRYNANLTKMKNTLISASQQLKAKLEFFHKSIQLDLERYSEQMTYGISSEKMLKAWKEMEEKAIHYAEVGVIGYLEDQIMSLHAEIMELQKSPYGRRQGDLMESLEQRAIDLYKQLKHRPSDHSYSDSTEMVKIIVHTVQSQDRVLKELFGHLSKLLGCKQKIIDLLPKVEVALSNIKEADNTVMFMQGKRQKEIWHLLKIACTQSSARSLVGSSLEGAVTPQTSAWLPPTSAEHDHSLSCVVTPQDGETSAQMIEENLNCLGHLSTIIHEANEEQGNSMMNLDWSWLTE"}, "[22]": {"molecular_target": "CDK1 CCNB1 (human) (UniProt P06493+P14635)", "sequence (P06493 whole entry, looked up)": "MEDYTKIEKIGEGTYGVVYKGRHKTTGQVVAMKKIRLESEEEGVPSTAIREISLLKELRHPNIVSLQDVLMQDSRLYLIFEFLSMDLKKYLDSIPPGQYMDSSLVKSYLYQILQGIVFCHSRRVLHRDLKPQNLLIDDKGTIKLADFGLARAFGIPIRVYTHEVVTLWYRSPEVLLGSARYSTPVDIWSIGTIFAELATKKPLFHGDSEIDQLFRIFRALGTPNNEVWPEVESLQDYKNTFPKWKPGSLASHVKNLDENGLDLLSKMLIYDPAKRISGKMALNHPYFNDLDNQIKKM", "sequence (P14635 whole entry, looked up)": "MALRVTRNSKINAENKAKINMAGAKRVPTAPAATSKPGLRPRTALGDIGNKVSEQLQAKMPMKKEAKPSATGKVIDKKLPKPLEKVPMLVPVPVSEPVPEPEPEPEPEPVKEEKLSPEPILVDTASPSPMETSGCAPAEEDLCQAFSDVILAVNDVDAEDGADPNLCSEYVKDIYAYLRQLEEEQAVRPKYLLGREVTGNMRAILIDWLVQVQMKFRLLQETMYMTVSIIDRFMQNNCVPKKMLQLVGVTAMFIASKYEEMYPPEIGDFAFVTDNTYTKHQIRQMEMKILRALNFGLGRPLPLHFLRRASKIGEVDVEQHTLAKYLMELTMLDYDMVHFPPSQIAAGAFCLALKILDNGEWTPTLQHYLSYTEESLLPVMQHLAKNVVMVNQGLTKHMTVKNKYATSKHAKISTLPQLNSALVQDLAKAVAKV"}, "[23]": {"molecular_target": "PLK2 (human) (UniProt Q9NYY3)"}, "[24]": {"molecular_target": "PTK6 (human) (UniProt Q13882)", "sequence (Q13882 whole entry, looked up)": "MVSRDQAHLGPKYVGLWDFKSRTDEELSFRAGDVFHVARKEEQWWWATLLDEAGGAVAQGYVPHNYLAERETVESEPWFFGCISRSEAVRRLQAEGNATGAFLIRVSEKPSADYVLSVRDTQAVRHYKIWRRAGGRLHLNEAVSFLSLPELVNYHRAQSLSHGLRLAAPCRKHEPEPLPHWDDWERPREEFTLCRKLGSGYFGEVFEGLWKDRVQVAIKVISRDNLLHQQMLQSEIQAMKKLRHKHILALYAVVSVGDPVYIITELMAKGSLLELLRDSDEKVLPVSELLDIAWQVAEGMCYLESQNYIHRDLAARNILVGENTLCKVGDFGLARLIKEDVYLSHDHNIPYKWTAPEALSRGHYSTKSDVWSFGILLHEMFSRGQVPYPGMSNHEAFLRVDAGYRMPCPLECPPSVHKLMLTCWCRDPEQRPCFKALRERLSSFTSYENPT"}, "[25]": {"molecular_target": "IKBKB (human) (UniProt O14920)"}, "[26]": {"molecular_target": "RIPK2 (human) (UniProt O43353)"}, "[27]": {"molecular_target": "EPHA3 (human) (UniProt P29320)"}, "[28]": {"molecular_target": "PIM2 (human) (UniProt Q9P1W9)"}, "[29]": {"molecular_target": "SRPK1 (human) (UniProt Q96SB4)"}, "[30]": {"molecular_target": "PRKACA (human) (UniProt P17612)"}, "[31]": {"molecular_target": "MAP4K4 (human) (UniProt O95819)"}, "[32]": {"molecular_target": "LRRK2 (human) (UniProt Q5S007)"}, "[33]": {"molecular_target": "SIK2 (human) (UniProt Q9H0K1)"}, "[34]": {"molecular_target": "PRKCH (human) (UniProt P24723)", "sequence (P24723 whole entry, looked up)": "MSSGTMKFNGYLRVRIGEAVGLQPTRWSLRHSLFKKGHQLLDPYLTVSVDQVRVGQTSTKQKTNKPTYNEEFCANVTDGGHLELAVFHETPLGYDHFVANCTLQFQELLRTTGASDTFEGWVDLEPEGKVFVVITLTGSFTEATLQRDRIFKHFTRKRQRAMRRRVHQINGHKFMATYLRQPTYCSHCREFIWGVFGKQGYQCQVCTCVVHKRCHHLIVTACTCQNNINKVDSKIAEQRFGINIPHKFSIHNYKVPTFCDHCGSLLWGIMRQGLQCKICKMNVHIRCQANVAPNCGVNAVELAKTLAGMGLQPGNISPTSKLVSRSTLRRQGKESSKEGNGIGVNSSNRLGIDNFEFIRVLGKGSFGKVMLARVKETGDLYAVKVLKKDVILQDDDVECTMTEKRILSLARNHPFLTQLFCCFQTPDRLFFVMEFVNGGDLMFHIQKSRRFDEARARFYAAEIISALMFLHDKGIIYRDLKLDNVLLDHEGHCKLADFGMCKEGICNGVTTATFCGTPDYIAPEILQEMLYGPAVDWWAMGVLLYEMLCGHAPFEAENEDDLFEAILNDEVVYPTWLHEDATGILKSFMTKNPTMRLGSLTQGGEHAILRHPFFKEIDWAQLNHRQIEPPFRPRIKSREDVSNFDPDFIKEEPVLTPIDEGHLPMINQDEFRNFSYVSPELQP"}, "[35]": {"molecular_target": "FES (human) (UniProt P07332)"}, "[36]": {"molecular_target": "TSSK2 (human) (UniProt Q96PF2)", "sequence (Q96PF2 whole entry, looked up)": "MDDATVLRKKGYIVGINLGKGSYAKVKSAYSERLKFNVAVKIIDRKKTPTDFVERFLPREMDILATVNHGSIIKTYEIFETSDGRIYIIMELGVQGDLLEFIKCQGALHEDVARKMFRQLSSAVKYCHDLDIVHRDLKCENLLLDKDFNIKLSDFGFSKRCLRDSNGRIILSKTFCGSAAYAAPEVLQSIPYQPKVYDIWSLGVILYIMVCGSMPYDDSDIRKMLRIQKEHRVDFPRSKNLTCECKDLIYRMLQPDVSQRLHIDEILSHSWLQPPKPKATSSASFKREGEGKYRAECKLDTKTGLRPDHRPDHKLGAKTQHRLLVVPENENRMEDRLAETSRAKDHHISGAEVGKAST"}, "[37]": {"molecular_target": "SGK3 (human) (UniProt Q96BR1)"}, "[38]": {"molecular_target": "MKNK2 (human) (UniProt Q9HBH9)"}, "[39]": {"molecular_target": "CAMK2B (human) (UniProt Q13554)"}, "[40]": {"molecular_target": "ZAP70 (human) (UniProt P43403)"}, "[41]": {"molecular_target": "BLK (human) (UniProt P51451)"}, "[42]": {"molecular_target": "PLK1 (human) (UniProt P53350)"}}, "data": [{"smiles": "O=C1NC(=O)c2c1c1c3ccccc3[nH]c1c1[nH]c3cc(Br)ccc3c21", "values": [{"measurement": "residual activity", "setting": "[1]", "result": 88.8, "unit": "%"}, {"measurement": "residual activity", "setting": "[2]", "result": 101, "unit": "%"}, {"measurement": "residual activity", "setting": "[3]", "result": 68.1, "unit": "%"}, {"measurement": "residual activity", "setting": "[4]", "result": 96.2, "unit": "%"}, {"measurement": "residual activity", "setting": "[5]", "result": 79.7, "unit": "%"}, {"measurement": "residual activity", "setting": "[6]", "result": 92, "unit": "%"}, {"measurement": "residual activity", "setting": "[7]", "result": 88.8, "unit": "%"}, {"measurement": "residual activity", "setting": "[8]", "result": 42, "unit": "%"}, {"measurement": "residual activity", "setting": "[9]", "result": 89.7, "unit": "%"}, {"measurement": "residual activity", "setting": "[10]", "result": 82.7, "unit": "%"}, {"measurement": "residual activity", "setting": "[11]", "result": 99.8, "unit": "%"}, {"measurement": "residual activity", "setting": "[12]", "result": 37.5, "unit": "%"}, {"measurement": "residual activity", "setting": "[13]", "result": 90.3, "unit": "%"}, {"measurement": "residual activity", "setting": "[14]", "result": 52.5, "unit": "%"}, {"measurement": "residual activity", "setting": "[15]", "result": 93.8, "unit": "%"}, {"measurement": "residual activity", "setting": "[16]", "result": 32.4, "unit": "%"}, {"measurement": "residual activity", "setting": "[17]", "result": 107, "unit": "%"}, {"measurement": "residual activity", "setting": "[18]", "result": 84.5, "unit": "%"}, {"measurement": "residual activity", "setting": "[19]", "result": 21.1, "unit": "%"}, {"measurement": "residual activity", "setting": "[20]", "result": 99.1, "unit": "%"}, {"measurement": "residual activity", "setting": "[21]", "result": 81.5, "unit": "%"}, {"measurement": "residual activity", "setting": "[22]", "result": 47.8, "unit": "%"}, {"measurement": "residual activity", "setting": "[23]", "result": 93.7, "unit": "%"}, {"measurement": "residual activity", "setting": "[24]", "result": 92.7, "unit": "%"}, {"measurement": "residual activity", "setting": "[25]", "result": 92.2, "unit": "%"}, {"measurement": "residual activity", "setting": "[26]", "result": 99.6, "unit": "%"}, {"measurement": "residual activity", "setting": "[27]", "result": 100, "unit": "%"}, {"measurement": "residual activity", "setting": "[28]", "result": 44.6, "unit": "%"}, {"measurement": "residual activity", "setting": "[29]", "result": 86.4, "unit": "%"}, {"measurement": "residual activity", "setting": "[30]", "result": 103, "unit": "%"}, {"measurement": "residual activity", "setting": "[31]", "result": 29.3, "unit": "%"}, {"measurement": "residual activity", "setting": "[32]", "result": 49.8, "unit": "%"}, {"measurement": "residual activity", "setting": "[33]", "result": 80.4, "unit": "%"}, {"measurement": "residual activity", "setting": "[34]", "result": 100, "unit": "%"}, {"measurement": "residual activity", "setting": "[35]", "result": 88.1, "unit": "%"}, {"measurement": "residual activity", "setting": "[36]", "result": 96.9, "unit": "%"}, {"measurement": "residual activity", "setting": "[37]", "result": 97.2, "unit": "%"}, {"measurement": "residual activity", "setting": "[38]", "result": 44, "unit": "%"}, {"measurement": "residual activity", "setting": "[39]", "result": 80.3, "unit": "%"}, {"measurement": "residual activity", "setting": "[40]", "result": 104, "unit": "%"}, {"measurement": "residual activity", "setting": "[41]", "result": 83.9, "unit": "%"}, {"measurement": "residual activity", "setting": "[42]", "result": 91.2, "unit": "%"}]}, {"smiles": "COc1cc2ncnc(Nc3ccc(O)c(Br)c3)c2cc1OC", "values": [{"measurement": "residual activity", "setting": "[1]", "result": 57.8, "unit": "%"}, {"measurement": "residual activity", "setting": "[2]", "result": 105, "unit": "%"}, {"measurement": "residual activity", "setting": "[3]", "result": 94.8, "unit": "%"}, {"measurement": "residual activity", "setting": "[4]", "result": 92.4, "unit": "%"}, {"measurement": "residual activity", "setting": "[5]", "result": 92.8, "unit": "%"}, {"measurement": "residual activity", "setting": "[6]", "result": 105, "unit": "%"}, {"measurement": "residual activity", "setting": "[7]", "result": 89, "unit": "%"}, {"measurement": "residual activity", "setting": "[8]", "result": 94.8, "unit": "%"}, {"measurement": "residual activity", "setting": "[9]", "result": 78.6, "unit": "%"}, {"measurement": "residual activity", "setting": "[10]", "result": 91.1, "unit": "%"}, {"measurement": "residual activity", "setting": "[11]", "result": 105, "unit": "%"}, {"measurement": "residual activity", "setting": "[12]", "result": 51, "unit": "%"}, {"measurement": "residual activity", "setting": "[13]", "result": 98.2, "unit": "%"}, {"measurement": "residual activity", "setting": "[14]", "result": 88.7, "unit": "%"}, {"measurement": "residual activity", "setting": "[15]", "result": 58.4, "unit": "%"}, {"measurement": "residual activity", "setting": "[16]", "result": 57.8, "unit": "%"}, {"measurement": "residual activity", "setting": "[17]", "result": 102, "unit": "%"}, {"measurement": "residual activity", "setting": "[18]", "result": 88.3, "unit": "%"}, {"measurement": "residual activity", "setting": "[19]", "result": 110, "unit": "%"}, {"measurement": "residual activity", "setting": "[20]", "result": 102, "unit": "%"}, {"measurement": "residual activity", "setting": "[21]", "result": 107, "unit": "%"}, {"measurement": "residual activity", "setting": "[22]", "result": 81.3, "unit": "%"}, {"measurement": "residual activity", "setting": "[23]", "result": 104, "unit": "%"}, {"measurement": "residual activity", "setting": "[24]", "result": 20.1, "unit": "%"}, {"measurement": "residual activity", "setting": "[25]", "result": 88.1, "unit": "%"}, {"measurement": "residual activity", "setting": "[26]", "result": 36.7, "unit": "%"}, {"measurement": "residual activity", "setting": "[27]", "result": 95.4, "unit": "%"}, {"measurement": "residual activity", "setting": "[28]", "result": 94.1, "unit": "%"}, {"measurement": "residual activity", "setting": "[29]", "result": 91.8, "unit": "%"}, {"measurement": "residual activity", "setting": "[30]", "result": 97.7, "unit": "%"}, {"measurement": "residual activity", "setting": "[31]", "result": 59.3, "unit": "%"}, {"measurement": "residual activity", "setting": "[32]", "result": 82.7, "unit": "%"}, {"measurement": "residual activity", "setting": "[33]", "result": 92.2, "unit": "%"}, {"measurement": "residual activity", "setting": "[34]", "result": 86.3, "unit": "%"}, {"measurement": "residual activity", "setting": "[35]", "result": 94.9, "unit": "%"}, {"measurement": "residual activity", "setting": "[36]", "result": 98.7, "unit": "%"}, {"measurement": "residual activity", "setting": "[37]", "result": 94.5, "unit": "%"}, {"measurement": "residual activity", "setting": "[38]", "result": 18, "unit": "%"}, {"measurement": "residual activity", "setting": "[39]", "result": 99.3, "unit": "%"}, {"measurement": "residual activity", "setting": "[40]", "result": 99.7, "unit": "%"}, {"measurement": "residual activity", "setting": "[41]", "result": 83.8, "unit": "%"}, {"measurement": "residual activity", "setting": "[42]", "result": 98.8, "unit": "%"}]}]}
